“And” between values parts separate entries of the source, which are not always exact repeats. Equal entries are not always repeated.
Tests used:
[1] = xn = mol fraction of the nth substance listed

CC(C)CCCC(C)CCCC(C)CCCCC(C)CCCC(C)CCCC(C)C (centres undefined)
100 kPa
Conditions	viscosity [mPa·s]
293.15 K	35.3
313.15 K	15.4

Cc1ccc(C)cc1
Conditions	viscosity
293.15 K, 101 kPa	0.5756 mPa·s and 0.6402 mPa·s and 0.6388 mPa·s
293.15 K, 101.2 kPa	0.6517 mPa·s
293.15 K, 101.3 kPa	0.6332 mPa·s and 0.6589 mPa·s
298 K, 101.3 kPa	0.615 mPa·s
298.15 K, 100 kPa	0.6118 mPa·s
298.15 K, 101.2 kPa	0.6083 mPa·s
303.15 K, 101.2 kPa	0.5753 mPa·s
303.15 K, 101.3 kPa	0.5702 mPa·s
303.15 K, 101.32 kPa	0.564 mPa·s
303.15 K, 101.33 kPa	0.5694 mPa·s and 0.519 mPa·s and 0.57 mPa·s
307.35 K, 101.33 kPa	0.539 mPa·s
308.15 K, 100 kPa	0.5508 mPa·s
308.15 K, 101.2 kPa	0.5364 mPa·s
308.15 K, 101.3 kPa	0.5381 mPa·s
313.15 K, 101.2 kPa	0.5094 mPa·s
313.15 K, 101.3 kPa	0.5309 mPa·s and 0.5117 mPa·s and 0.5086 mPa·s
313.15 K, 101.33 kPa	0.5064 mPa·s
318 K, 101.3 kPa	0.4919 mPa·s
318.15 K, 101 kPa	0.4925 mPa·s and 0.462 mPa·s and 0.483 mPa·s
318.15 K, 101.2 kPa	0.5049 mPa·s
318.15 K, 101.3 kPa	0.4817 mPa·s
323.15 K, 101.3 kPa	0.4738 mPa·s and 0.4571 mPa·s

O=Cc1ccccc1
viscosity
Conditions	293.15 K	298.1 K	298.15 K	303.15 K	308.15 K	313.15 K	318.15 K	323.15 K
100 kPa	1.495 mPa·s	–	–	–	–	–	–	–
101 kPa	–	1.37 mPa·s	1.392 mPa·s	1.26 mPa·s	1.215 mPa·s	–	0.9051 mPa·s and 1.051 mPa·s	0.975 mPa·s
101.33 kPa	1.397 mPa·s	–	1.445 mPa·s and 1.321 mPa·s and 1.385 mPa·s	1.278 mPa·s	1.13 mPa·s and 1.178 mPa·s	1.17 mPa·s	1.034 mPa·s	1.072 mPa·s

OCCOCCO
viscosity
Conditions	293.15 K	298.1 K	298.15 K	308.15 K	313.15 K
101 kPa	38.82 mPa·s and 38.82 mPa·s and 38.82 mPa·s (2×)	27.87 mPa·s	27.15 mPa·s and 27.14 mPa·s	17.26 mPa·s	14.81 mPa·s
101.32 kPa	33.6 mPa·s	–	–	–	12.8 mPa·s
101.33 kPa	–	–	26.81 mPa·s	–	–

CC(O)C(C)O (centres undefined) + O
viscosity [mPa·s], [1]
Conditions	303.15 K	308.15 K	313.15 K	318.15 K	323.15 K
101 kPa, x1 = 0.01	0.943	0.842	0.759	0.69	0.632
101 kPa, x1 = 0.0199	1.108	0.982	0.877	0.792	0.719
101 kPa, x1 = 0.03	1.294	1.138	1.01	0.905	0.816
101 kPa, x1 = 0.0399	1.506	1.312	1.155	–	0.919
101 kPa, x1 = 0.0499	1.733	1.498	1.308	1.155	1.028
101 kPa, x1 = 0.0601	1.985	1.7	1.471	1.292	1.145
101 kPa, x1 = 0.0699	2.242	1.91	1.649	1.436	1.264
101 kPa, x1 = 0.08	2.53	2.135	1.826	1.586	1.39
101 kPa, x1 = 0.0899	2.79	2.345	1.998	1.724	1.503
101 kPa, x1 = 0.1	3.084	2.571	2.182	1.868	1.622
101.3 kPa, x1 = 0.1176	–	3.174	2.627	2.203	–
101.3 kPa, x1 = 0.2307	–	6.873	5.405	4.363	–
101.3 kPa, x1 = 0.3181	–	10.06	7.822	6.198	–
101.3 kPa, x1 = 0.4443	–	15.66	11.92	9.192	–
101.3 kPa, x1 = 0.5311	–	20.41	15.17	11.64	–
101.3 kPa, x1 = 0.6427	–	27.5	20.24	15.02	–
101.3 kPa, x1 = 0.8275	–	41.68	29.62	21.32	–
101.3 kPa, x2 = 0.3539	–	12.95	–	–	–

CC(O)C(C)O (centres undefined) + O=C1CCCN1
Conditions	viscosity [mPa·s]
[1], 308.15 K, 101 kPa, x2 = 0.5898	14.65

COC(=O)OCC(F)(F)F + O=C1OCCO1
[1], 313.15 K, 100 kPa
Conditions	viscosity [mPa·s]
x2 = 0.1011	0.826
x2 = 0.1994	0.92
x2 = 0.3006	1.03
x2 = 0.3997	1.142
x2 = 0.5004	1.264
x2 = 0.5989	1.39
x2 = 0.7023	1.524
x2 = 0.7988	1.652
x2 = 0.9	1.786

Fc1ccccc1 + O=CN1CCOCC1
viscosity [mPa·s], [1], 101 kPa
Conditions	x2 = 0.0946	x2 = 0.1904	x2 = 0.2873	x2 = 0.3854	x2 = 0.4847	x2 = 0.5853	x2 = 0.687	x2 = 0.79	x2 = 0.8944
303.15 K	0.72	0.957	1.245	1.595	2.028	2.579	3.265	4.113	5.175
308.15 K	0.677	0.895	1.157	1.466	1.846	2.325	2.919	3.64	4.539
313.15 K	0.641	0.845	1.079	1.361	1.711	2.139	2.669	3.314	4.111

— the CheMixHub viscosity set
